Results on ten compounds are retold here after article PMC11231114 (EJNMMI Research, 2024).

The structures appear in SMILES notation. Several values for one entry are separate records, joined by “and”; a condition that tells them apart may be missing. Equal values may be shown once. Read-outs that look alike come from different tables or passages of the source.

The conditions of data set [1]: cited from earlier work.
Another data set deals with rat hepatocytes. The data set is described as follows: Metabolite profiling in cryopreserved hepatocytes (in vitro MetID). In kind it is in vitro ADME. Conditions: 1 µM SYN2, 37 °C. The method, then:
(§1) The metabolite profiling and characterization experiment of SYN2 molecule (in vitro MetID, Admescope) was conducted to evaluate potential metabolic pathways. In order to characterize the metabolites of SYN2, the compound was incubated in cryopreserved rat, dog and human hepatocytes. Prior to the incubation, the hepatocytes were thawed, suspended in Williams medium E and then centrifuged to receive a target density of about 1 million cells/ml. A SYN2 solution of 1 µM was then added to the hepatocyte suspension and incubated at 37 °C for 0, 30 and 60 min. The incubations were stopped by the addition of acetonitrile, then frozen and centrifuged to remove precipitated proteins. Supernatants were then analysed with ultra-performance liquid chromatography (UPLC) and high-resolution mass spectrometry (HRMS).
(§2) Compound Discoverer (CD) was used for data mining with manual confirmation for metabolite profiling and characterization.

For the next data set, the system named is human hepatocytes. The data set is described as above. In kind it is in vitro ADME. The following applies: 1 µM SYN2, 37 °C. As for the experimental part:
as §1, §2

A further data set deals with dog hepatocytes. Described as above. In kind it is in vitro ADME. Conditions: 1 µM SYN2, 37 °C. As for the experimental part: as §1, §2
For data set [2] the following is noted: cited from earlier work; for accumulation in cardiac tissue / heart/liver ratio / heart/lungs ratio: 1 h post-injection.
Setting [3] is: available SPECT and PET tracers.
Setting [4] is: human studies, exercise stress subjects.
The mark [5] stands for this setting: human studies, exercise stress subjects, listed as [^18F]flurpiridaz.

As to `[15OH2]` [[^15O]H2O], in data set [1] (setting [3]), the Effective dose was 0.0011 mSv/MBq.

With `[Cl][201Tl]` [[^201Tl]Thallium chloride], the Effective dose in data set [1] (setting [3]) is reported as 0.14 mSv/MBq.

On to `[13NH3]` [[^13N]Ammonia], for which, in data set [1] (setting [3]), the Effective dose is listed as 0.002 mSv/MBq.

Consider `[82Rb+].[Cl-]` [[^82Rb]Rubidium chloride], for which, in data set [1] (setting [3]), the Effective dose is given as 0.0011 mSv/MBq.

For `CCOCCP(CCOCC)CCP(CCOCC)CCOCC.CCOCCP(CCOCC)CCP(CCOCC)CCOCC.[O]=[99Tc+]=[O]` [[^99mTc]Tc-tetrofosmin], the Effective dose in data set [1] (setting [3]) was 0.0069 mSv/MBq.

`CNc1ccc2cc3ccc(N(C)C)cc3[n+](CCF)c2c1` [M1]: the “Relative abundance of metabolites calculated as % of parent (SYN2), Rat” value in the data set on rat hepatocytes (30 min) was 94 % of parent; in the data set on rat hepatocytes (60 min), 137 % of parent. The figures for the “Relative abundance of metabolites calculated as % of parent (SYN2), Human” value with human hepatocytes (30 min) and in the data set with human hepatocytes (60 min) were 10 % of parent and 19 % of parent, respectively. The “Relative abundance of metabolites calculated as % of parent (SYN2), Dog” value in the data set on dog hepatocytes (30 min) is listed as 34 % of parent; in the data set with dog hepatocytes (60 min) it was 58 % of parent.

On to `CN(C)c1ccc2cc3ccc(N(C)C)cc3nc2c1` [M4], for which the “Relative abundance of metabolites calculated as % of parent (SYN2), Rat” value in the data set with rat hepatocytes (30 min) is “Trace”. The “Relative abundance of metabolites calculated as % of parent (SYN2), Human” value in the data set on human hepatocytes (30 min) and with human hepatocytes (60 min) was 1 % of parent throughout. The “Relative abundance of metabolites calculated as % of parent (SYN2), Dog” value in the data set with dog hepatocytes (30 min) was “Trace”.

For `CC(C)(C)n1ncc(OCc2ccc(COCC[18F])cc2)c(Cl)c1=O` [[^18F]Flurpiridaz], in data set [2], the “accumulation in cardiac tissue” value was 3.3 ± 0.3 %ID/g, the heart/liver ratio is recorded as 3.7 ± 0.2, the heart/lungs ratio is 12.7 ± 1.4 and the heart/blood ratio is reported as 13. Also, the Effective dose in data set [1] (setting [3]) was 0.015 mSv/MBq. In data set [1] (setting [4]), the “Absorbed dose per administrated activity, Adrenals” value is 1.40E-02 mSv/MBq; the “Absorbed dose per administrated activity, Brain” value was 1.10E-02 mSv/MBq; the “Absorbed dose per administrated activity, Breasts” value was 1.00E-02 mSv/MBq; the “Absorbed dose per administrated activity, Gallbladder Wall” value is reported as 1.50E-02 mSv/MBq. Besides, in data set [1] (setting [4]), the “Absorbed dose per administrated activity, Heart Wall” value is 3.90E-02 mSv/MBq; the “Absorbed dose per administrated activity, Kidneys” value is 2.70E-02 mSv/MBq; the “Absorbed dose per administrated activity, Liver” value is on record as 1.50E-02 mSv/MBq; the “Absorbed dose per administrated activity, Lower Large Intestine Wall” value is recorded as 1.40E-02 mSv/MBq. In data set [1] (setting [4]), the “Absorbed dose per administrated activity, Lungs” value is listed as 1.20E-02 mSv/MBq; the “Absorbed dose per administrated activity, Muscle” value is recorded as 1.20E-02 mSv/MBq; the “Absorbed dose per administrated activity, Osteogenic Cells” value was 2.00E-02 mSv/MBq; the “Absorbed dose per administrated activity, Ovaries” value is 1.40E-02 mSv/MBq. In addition, in data set [1] (setting [4]), the “Absorbed dose per administrated activity, Pancreas” value is given as 1.50E-02 mSv/MBq; the “Absorbed dose per administrated activity, Red Marrow” value is given as 1.50E-02 mSv/MBq; the “Absorbed dose per administrated activity, Skin” value is 9.00E-03 mSv/MBq; the “Absorbed dose per administrated activity, Small Intestine” value is 1.40E-02 mSv/MBq. Besides, in data set [1] (setting [4]), the “Absorbed dose per administrated activity, Spleen” value was 1.30E-02 mSv/MBq; the “Absorbed dose per administrated activity, Stomach Wall” value is 2.40E-02 mSv/MBq; the “Absorbed dose per administrated activity, Testes” value is on record as 1.10E-02 mSv/MBq; the “Absorbed dose per administrated activity, Thymus” value is listed as 1.30E-02 mSv/MBq. Besides, in data set [1] (setting [4]), the “Absorbed dose per administrated activity, Thyroid” value is recorded as 1.40E-02 mSv/MBq; the “Absorbed dose per administrated activity, Total Body” value is listed as 1.20E-02 mSv/MBq; the “Absorbed dose per administrated activity, Upper Large Intestine Wall” value is reported as 1.40E-02 mSv/MBq; the “Absorbed dose per administrated activity, Urinary Bladder Wall” value is given as 1.60E-02 mSv/MBq. For the same compound, in data set [1] (setting [4]), the “Absorbed dose per administrated activity, Uterus” value is listed as 1.40E-02 mSv/MBq; the “Effective Dose Equivalent” value was 1.60E-02 mSv/MBq; the “Effective dose” value is on record as 1.50E-02 mSv/MBq. Further, in data set [1] (setting [5]), the “Absorbed dose per administrated activity, Heart Wall” value was 0.0390 mSv/MBq and 0.039 mSv/MBq; the “Absorbed dose per administrated activity, Kidneys” value is recorded as 0.027 mSv/MBq; the “Absorbed dose per administrated activity, Stomach Wall” value was 0.024 mSv/MBq; the “Effective dose” value was 0.0150 mSv/MBq.

In the case of `[C-]#[N+]CC(C)(C)OC.[C-]#[N+]CC(C)(C)OC.[C-]#[N+]CC(C)(C)OC.[C-]#[N+]CC(C)(C)OC.[C-]#[N+]CC(C)(C)OC.[C-]#[N+]CC(C)(C)OC.[Tc]` [[^99mTc]Tc-sestamibi], in data set [2], the “accumulation in cardiac tissue” value is given as 2.0 ± 0.3 %ID/g, the heart/liver ratio is recorded as 2.4 ± 0.2 and the heart/lungs ratio is 5.9 ± 0.5. Further, in data set [1] (setting [3]), the Effective dose was 0.0079 mSv/MBq. Also, in data set [1], the “absorbed dose in kidneys” value is on record as 0.036 mSv/MBq.

As for `CNc1ccc2cc3ccc(N)cc3[n+](CCF)c2c1` [M3], the figures for the “Relative abundance of metabolites calculated as % of parent (SYN2), Rat” value in the data set with rat hepatocytes (30 min) and in the data set with rat hepatocytes (60 min) were 27 % of parent and 666 % of parent, respectively. The “Relative abundance of metabolites calculated as % of parent (SYN2), Human” value in the data set with human hepatocytes (30 min) is 1 % of parent; with human hepatocytes (60 min), 3 % of parent. The “Relative abundance of metabolites calculated as % of parent (SYN2), Dog” value in the data set with dog hepatocytes (30 min) is 9 % of parent; in the data set on dog hepatocytes (60 min), 46 % of parent.
